Measurements as given in paper PMC7556346 (Cell chemical biology, 2020).
“Also recorded” adds a separate entry of the source.

Tests used:
CTD110.6 antibody = CTD110.6 antibody binding on glycopeptide microarrays
[1] = test system: Wheat Germ Agglutinin (WGA); test: Lectin binding on microarray; conditions: control glycans on the GP1 array; TSM binding buffer pH 7.4, 1 hr, room temperature

CC(=O)N[C@H]1C(O)O[C@H](CO)[C@H](O)[C@@H]1O (stereo partly drawn) [GalNAc]
effect of free GalNAc on CTD110.6 non-specific binding (hapten) (CTD110.6 antibody; GP2 array printed at 100 μM, 20 mM GalNAc): specificity can be restored; also recorded: can be prevented

CC(=O)N[C@H]1C(O)O[C@H](CO)[C@@H](O)[C@@H]1O (stereo partly drawn) [GlcNAc]
effect of free GlcNAc on CTD110.6 binding (hapten competition) (CTD110.6 antibody; GP1 array, 20 mM GlcNAc): completely abolished

chitin
binding of WGA to control glycans [1]: exhibited lectin binding with WGA
